Experimental data reported in article PMC7248693, “Synthesis and Biological Evaluation of 2-Substituted Benzyl-/Phenylethylamino-4-amino-5-aroylthiazoles as Apoptosis-Inducing Anticancer Agents” (Molecules, 2020).

Columns and labels:
SK-MEL-1 = assay: Antiproliferative activity, MTT assay, SK-MEL-1 cells; format: cell-based, human; settings: for IC50: Homo sapiens, SK-MEL-1, 72 h, MTT, mean ± SE, at least three independent experiments
Description: (§1) In Table 1, we summarize the antiproliferative activity of the 15 novel 2-arylalkylamino-4-amino-5-(3′,4′,5′-trimethoxybenzoyl)thiazole derivatives 8a–o against human leukemia (U-937) and melanoma (SK-MEL-1) tumor cells lines.
(§2) Human U-937 and SK-MEL-1 cell lines were from the German Collection of Microorganisms and Cell Cultures (Braunschweig, Germany; DSMZ No: ACC 5 and ACC 303, respectively). The U-937 is a myeloid leukemia cell line isolated from a histiocytic lymphoma. SK-MEL-1 is a melanoma cell line. Cells were cultured in suspension in RPMI 1640 medium supplemented with 10% (v/v) fetal bovine serum and antibiotics (100 μg mL^−1 streptomycin and 100 U mL^−1 penicillin), at 37 °C in a humidified atmosphere containing 5% CO2. The trypan blue exclusion method was used for counting the cells by a hemocytometer, and cell viability was always greater than 95% in all experiments. Compounds were dissolved in DMSO, and further dilutions were made in culture medium just before use. […] The effects on cell viability of synthetic compounds were determined using a colorimetric assay with the reduction of 3-(4,5-dimethyl-2-thiazolyl-)-2,5-diphenyl-2H-tetrazolium bromide (MTT) as previously described. Briefly, 5 × 10^3 cells were seeded in 96-well microculture plates with increasing concentrations of compounds for 72 h. Then, MTT (0.5 mg mL^−1) was added and incubated for 4 h, and the reaction was stopped with 20% sodium dodecyl sulfate. A570 was used as a measure of cell viability. Concentrations inducing a 50% inhibition of cell growth were determined graphically by nonlinear regression using the curve-fitting algorithm of GraphPad Prism 4.0 (GraphPad Inc La Jolla, CA, USA).

U-937 = assay: Antiproliferative activity, MTT assay, U-937 cells; format: cell-based, human; settings: for IC50: Homo sapiens, U-937, 72 h, MTT, mean ± SE, at least three independent experiments; for fold more potent than p-methoxy counterpart 8j: antiproliferative activity, cell line not specified (U-937 and SK-MEL-1)
Description: as §1, §2

Structure (SMILES)	IC50 (SK-MEL-1) [µM]	IC50 (U-937) [µM]	melting point [°C]	increase in potency relative to 8a and 8b (U-937; U-937 cells) [fold]	fold more potent than 8f (SK-MEL-1; SK-MEL-1 cells) [fold]	fold more potent than p-methoxy counterpart 8j (U-937) [fold]
COc1cccc2c1C(=O)c1c(O)c3c(c(O)c1C2=O)C[C@@](O)(C(=O)CO)C[C@@H]3O[C@H]1C[C@H](N)[C@H](O)[C@H](C)O1 [Doxorubicin, reference compound]	0.274 ± 0.07	0.083 ± 0.021				
COc1ccc(CNc2nc(N)c(C(=O)c3cc(OC)c(OC)c(OC)c3)s2)cc1 [8j, (4-Amino-2-((4-methoxybenzyl)amino)thiazol-5-yl)(3,4,5-trimethoxyphenyl)methanone]	22.9 ± 13.7	23.8 ± 5.2	131 to 135			
COc1cc(C(=O)c2sc(NCCCc3ccccc3)nc2N)cc(OC)c1OC [8c, (4-Amino-2-((3-phenylpropyl)amino)thiazol-5-yl)(3,4,5-trimethoxyphenyl)methanone]	16.7 ± 7	10.7 ± 2.8		2		
COc1cc(C(=O)c2sc(NCc3ccc(Br)cc3)nc2N)cc(OC)c1OC [8g, (4-Amino-2-((4-bromobenzyl)amino)thiazol-5-yl)(3,4,5-trimethoxyphenyl)methanone]	15.7 ± 4.9	12.9 ± 3.3	154 to 157			
COc1cc(C(=O)c2sc(NCc3ccc(F)cc3)nc2N)cc(OC)c1OC [8d, (4-Amino-2-((4-fluorobenzyl)amino)thiazol-5-yl)(3,4,5-trimethoxyphenyl)methanone]	51 ± 1.4	39.1 ± 4.2	132 to 134			
COc1cc(C(=O)c2sc(NCCc3ccccc3)nc2N)cc(OC)c1OC [8b, (4-Amino-2-(phenethylamino)thiazol-5-yl)(3,4,5-trimethoxyphenyl)methanone]	20.5 ± 6.9	19.3 ± 5.6	135 to 138			
COc1ccc(-c2nc(N)c(C(=O)c3cc(OC)c(OC)c(OC)c3)s2)cc1 [1a, reference compound]	48.3 ± 4.6	34.3 ± 2.2				
COc1cc(C(=O)c2sc(NCc3ccc(Cl)cc3)nc2N)cc(OC)c1OC [8e, (4-Amino-2-((4-chlorobenzyl)amino)thiazol-5-yl)(3,4,5-trimethoxyphenyl)methanone]	8.3 ± 5.5	8.7 ± 5.4	156 to 159		1.5	
COc1ccc(Nc2nc(N)c(C(=O)c3cc(OC)c(OC)c(OC)c3)s2)cc1 [2a, reference compound]	5.2 ± 1.4	0.484 ± 0.368				
COc1cccc(CNc2nc(N)c(C(=O)c3cc(OC)c(OC)c(OC)c3)s2)c1 [8l, (4-Amino-2-((3-methoxybenzyl)amino)thiazol-5-yl)(3,4,5-trimethoxyphenyl)methanone]	12.4 ± 4.8	12.3 ± 6.1	125 to 128			2
COc1cc(C(=O)c2sc(NCc3cccc(C)c3)nc2N)cc(OC)c1OC [8i, (4-Amino-2-((3-methylbenzyl)amino)thiazol-5-yl)(3,4,5-trimethoxyphenyl)methanone]	16.7 ± 5.6	18.1 ± 6.4	150 to 152			
COc1ccccc1CNc1nc(N)c(C(=O)c2cc(OC)c(OC)c(OC)c2)s1 [8m, (4-Amino-2-((2-methoxybenzyl)amino)thiazol-5-yl)(3,4,5-trimethoxyphenyl)methanone]	10.4 ± 2.8	13.6 ± 5.3				2
COc1cc(C(=O)c2sc(NCc3ccccc3)nc2N)cc(OC)c1OC [8a, (4-Amino-2-(benzylamino)thiazol-5-yl)(3,4,5-trimethoxyphenyl)methanone]	14.2 ± 9.7	21.1 ± 5.1	147 to 149			
COc1ccc(CNc2nc(N)c(C(=O)c3cc(OC)c(OC)c(OC)c3)s2)cc1OC [8n, (4-Amino-2-((3,4-dimethoxybenzyl)amino)thiazol-5-yl)(3,4,5-trimethoxyphenyl)methanone]	32.7 ± 7.7	28.7 ± 10.5	107 to 111			
COc1cc(C(=O)c2sc(NCc3ccc4c(c3)OCO4)nc2N)cc(OC)c1OC [8o, (4-Amino-2-((benzo[d][1,3]dioxol-5-ylmethyl)amino)thiazol-5-yl)(3,4,5-trimethoxyphenyl) methanone]	24.7 ± 1	27 ± 0.9	156 to 158			
COc1cc(C(=O)c2sc(NCc3ccc(C)cc3)nc2N)cc(OC)c1OC [8h, (4-Amino-2-((4-methylbenzyl)amino)thiazol-5-yl)(3,4,5-trimethoxyphenyl)methanone]	19 ± 9.4	15.4 ± 4.9	145 to 147			
COc1cc([C@@H]2c3cc4c(cc3[C@@H](O[C@@H]3O[C@@H]5CO[C@@H](C)O[C@H]5[C@H](O)[C@H]3O)[C@H]3COC(=O)[C@H]23)OCO4)cc(OC)c1O [Etoposide, reference compound]	6.3 ± 1	2.1 ± 0.4				
